Inconclusive results and toxic doses are left out.
System: P388 leukemia ip, CD2F1 mice, survival T/C
Assay: NCI In Vivo Anticancer Drug Screen. Data for tumor model P388 Leukemia (intraperitoneal) in CD2F1 (CDF1) mice
Conditions: endpoint: median survival time, higher = longer survival
How it was run: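 Mice carrying the transplanted tumor received test compound or vehicle. Survival was recorded in each group, and the value is the treated-group measurement divided by that of the vehicle-treated control group.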

[1] = dose: 50.0 mg/kg/injection, schedule: Q01DX005 (ip), vehicle: Klucel (hydroxypropylcellulose) (HPC)
[2] = dose: 100.0 mg/kg/injection, schedule: Q01DX005 (ip), vehicle: Klucel (hydroxypropylcellulose) (HPC)
[3] = dose: 200.0 mg/kg/injection, schedule: Q01DX005 (ip), vehicle: Klucel (hydroxypropylcellulose) (HPC)
[4] = dose: 100.0 mg/kg/injection, schedule: Q04DX003 (ip), vehicle: saline with Tween-80
[5] = dose: 200.0 mg/kg/injection, schedule: Q04DX003 (ip), vehicle: saline with Tween-80
[6] = dose: 400.0 mg/kg/injection, schedule: Q04DX003 (ip), vehicle: saline with Tween-80

In the case of `CSCCC(NC(=O)C(Cl)Cl)C(=O)O` (centres undefined), the T/C [1] is reported as 100 % of control, the T/C [2] is reported as 96 % of control and the T/C [3] is reported as 100 % of control.

With `CC(C)(O)C1C2OC(=O)C1C1(O)CC3OC34C(=O)OC2C14C` (centres undefined) the T/C (dose: 12.5 mg/kg/injection, schedule: Q01DX009 (ip), vehicle: saline with Tween-80) was 100 % of control, the T/C (dose: 25.0 mg/kg/injection, schedule: Q01DX009 (ip), vehicle: saline with Tween-80) was 100 % of control and the T/C (dose: 33.0 mg/kg/injection, schedule: Q04DX003 (ip), vehicle: saline with Tween-80) was 104 % of control. The T/C (dose: 50.0 mg/kg/injection, schedule: Q01DX009 (ip), vehicle: saline with Tween-80) was 100 % of control and the T/C (dose: 50.0 mg/kg/injection, schedule: Q04DX003 (ip), vehicle: saline with Tween-80) was 109 % of control.

In the case of `COC(=O)C12C=CC(C(=O)OC)(CC1)n1c(=O)n(-c3ccccc3)c(=O)n12`, the T/C (dose: 50.0 mg/kg/injection, schedule: Q01DX005 (ip), vehicle: saline with Tween-80) is reported as 107 % of control, the T/C (dose: 100.0 mg/kg/injection, schedule: Q01DX005 (ip), vehicle: saline with Tween-80) is reported as 100 % of control and the T/C (dose: 200.0 mg/kg/injection, schedule: Q01DX005 (ip), vehicle: saline with Tween-80) is reported as 100 % of control.

`Cc1c(Cl)cccc1NC(=O)/C=C/C(=O)O` was tested, and the T/C [4] was 90 % of control, the T/C [5] was 95 % of control and the T/C [6] was 90 % of control.

In the case of `CC(=O)/C(=C\c1ccccc1F)C(=O)CCN(C)C`, the T/C (dose: 60.0 mg/kg/injection, schedule: Q01DX005 (ip), vehicle: saline) is reported as 109 % of control and the T/C (dose: 120.0 mg/kg/injection, schedule: Q01DX005 (ip), vehicle: saline) is reported as 118 % of control.

For `COC(=O)C1CC=CCC1C(=O)OC` (centres undefined), the T/C (dose: 100.0 mg/kg/injection, schedule: Q04DX002 (ip), vehicle: saline with Tween-80) was 107 % of control, the T/C (dose: 200.0 mg/kg/injection, schedule: Q04DX002 (ip), vehicle: saline with Tween-80) was 106 % of control and the T/C (dose: 400.0 mg/kg/injection, schedule: Q04DX002 (ip), vehicle: saline with Tween-80) was 100 % of control.

With `O=C1OC(=O)C2C3OC(C(Br)C3Br)C12` (centres undefined) the T/C [1] was 102 % of control and the T/C [2] was 98 % of control.

For `CNC(=O)OCc1c(COC(=O)NC)c(C)n(-c2ccc(Cl)cc2)c1C`, the T/C (dose: 12.5 mg/kg/injection, schedule: Q01DX009 (ip), vehicle: saline) was 160 % of control and the T/C (dose: 25.0 mg/kg/injection, schedule: Q01DX009 (ip), vehicle: saline) was 166 % of control.

`CCN1C(=O)C(=C2C=C(c3ccccc3)C(C#N)(c3ccccc3)C(c3ccccc3)=C2)C(=O)N(CC)C1=S` (centres undefined) was tested, and the T/C [1] was 99 % of control, the T/C [2] was 97 % of control and the T/C [3] was 98 % of control.

`O=[N+]([O-])c1ccc(-c2nnn(Cc3ccco3)c2N2CCCCC2)cc1` was tested, and the T/C [1] was 105 % of control, the T/C [2] was 105 % of control and the T/C [3] was 107 % of control.

In the case of `COc1cc(C2c3cc(O)c(OC)cc3CC(O)(CO)C2CO)ccc1O` (centres undefined), the T/C (dose: 23.75 mg/kg/injection, schedule: Q01DX005 (ip), vehicle: Klucel (hydroxypropylcellulose) (HPC)) is reported as 100 % of control, the T/C (dose: 47.5 mg/kg/injection, schedule: Q01DX005 (ip), vehicle: Klucel (hydroxypropylcellulose) (HPC)) is reported as 95 % of control and the T/C (dose: 95.0 mg/kg/injection, schedule: Q01DX005 (ip), vehicle: Klucel (hydroxypropylcellulose) (HPC)) is reported as 86 % of control. The T/C (dose: 190.0 mg/kg/injection, schedule: Q01DX005 (ip), vehicle: Klucel (hydroxypropylcellulose) (HPC)) was 90 % of control.

In the case of `O=C1C(c2ccccc2)=C(c2ccccc2)/C1=C\c1ccc(Cl)cc1Cl`, the T/C (dose: 50.0 mg/kg/injection, schedule: Q01DX009 (ip), vehicle: Klucel (hydroxypropylcellulose) (HPC)) is reported as 87 % of control and the T/C (dose: 100.0 mg/kg/injection, schedule: Q01DX009 (ip), vehicle: Klucel (hydroxypropylcellulose) (HPC)) is reported as 87 % of control.

For `CCOC(=O)CCc1ccc2c(c1)OCO2`, the T/C (dose: 100.0 mg/kg/injection, schedule: Q01DX009 (ip), vehicle: saline) was 100 % of control, the T/C [4] was 91 % of control and the T/C (dose: 200.0 mg/kg/injection, schedule: Q01DX009 (ip), vehicle: saline) was 104 % of control. For the same compound, the T/C [5] was 100 % of control, the T/C (dose: 400.0 mg/kg/injection, schedule: Q01DX009 (ip), vehicle: saline) was 113 % of control and the T/C [6] was 91 % of control.

`CCOc1ccc2c(c1)C(C)=CC(C)(C)N2` was tested, and the T/C (dose: 100.0 mg/kg/injection, schedule: Q04DX003 (ip), vehicle: Klucel (hydroxypropylcellulose) (HPC)) was 99 % of control, the T/C (dose: 200.0 mg/kg/injection, schedule: Q04DX003 (ip), vehicle: Klucel (hydroxypropylcellulose) (HPC)) was 102 % of control and the T/C (dose: 400.0 mg/kg/injection, schedule: Q04DX003 (ip), vehicle: Klucel (hydroxypropylcellulose) (HPC)) was 102 % of control.
